Drawing on PubChem BioAssay AID330 (DTP/NCI, 2004), this text covers T/C for 23 molecules.

“And” between values parts separate entries of the source, which are not always exact repeats. Equal values may be shown once. Toxic doses and inconclusive results are not listed.

The subject of this test is P388 leukemia ip, CD2F1 mice, survival T/C. The test is described as follows: NCI In Vivo Anticancer Drug Screen. Data for tumor model P388 Leukemia (intraperitoneal) in CD2F1 (CDF1) mice. Conditions: endpoint: median survival time, higher = longer survival. An outline of the steps: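 Mice carrying the transplanted tumor received test compound or vehicle. Survival was recorded in each group, and the value is the treated-group measurement divided by that of the vehicle-treated control group.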

[1] abbreviates: dose: 12.5 mg/kg/injection, schedule: Q01DX009 (ip), vehicle: Klucel (hydroxypropylcellulose) (HPC).
Where [2] appears, read: dose: 25.0 mg/kg/injection, schedule: Q01DX009 (ip), vehicle: Klucel (hydroxypropylcellulose) (HPC).
Where [3] appears, read: dose: 50.0 mg/kg/injection, schedule: Q01DX009 (ip), vehicle: Klucel (hydroxypropylcellulose) (HPC).
Setting [4] is: dose: 50.0 mg/kg/injection, schedule: Q01DX009 (ip), vehicle: saline with Tween-80.
Setting [5] is: dose: 100.0 mg/kg/injection, schedule: Q01DX009 (ip), vehicle: saline with Tween-80.
Where [6] appears, read: dose: 200.0 mg/kg/injection, schedule: Q01DX009 (ip), vehicle: saline with Tween-80.
The mark [7] stands for this setting: dose: 6.25 mg/kg/injection, schedule: Q01DX009 (ip), vehicle: Klucel (hydroxypropylcellulose) (HPC).
The mark [8] stands for this setting: dose: 50.0 mg/kg/injection, schedule: Q01DX005 (ip), vehicle: saline with Tween-80.
The mark [9] stands for this setting: dose: 100.0 mg/kg/injection, schedule: Q01DX005 (ip), vehicle: saline with Tween-80.
Setting [10] is: dose: 60.0 mg/kg/injection, schedule: Q01DX005 (ip), vehicle: saline with Tween-80.
[11] abbreviates: dose: 120.0 mg/kg/injection, schedule: Q01DX005 (ip), vehicle: saline with Tween-80.
Where [12] appears, read: dose: 240.0 mg/kg/injection, schedule: Q01DX005 (ip), vehicle: saline with Tween-80.

For `CC(C)NC(=O)OCc1c(COC(=O)NC(C)C)c(-c2ccc(Cl)cc2)n2c1CCC2`, the T/C runs as follows: (dose: 3.12 mg/kg/injection, schedule: Q01DX005 (ip), vehicle: distilled water + Tween-80) 161 % of control; (dose: 6.25 mg/kg/injection, schedule: Q01DX005 (ip), vehicle: distilled water + Tween-80) 152 % of control; (dose: 12.5 mg/kg/injection, schedule: Q01DX005 (ip), vehicle: distilled water + Tween-80) 186 % of control and 190 % of control; (dose: 25.0 mg/kg/injection, schedule: Q01DX005 (ip), vehicle: distilled water + Tween-80) 186 % of control; (dose: 50.0 mg/kg/injection, schedule: Q01DX005 (ip), vehicle: distilled water + Tween-80) 110 % of control and 93 % of control.

For the molecule `[O-][n+]1nc2ccccc2c2ccccc21`, the T/C was 105 % of control under setting [1]; 105 % of control under setting [2]; 105 % of control and 97 % of control under setting [3]; 102 % of control (dose: 100.0 mg/kg/injection, schedule: Q01DX009 (ip), vehicle: Klucel (hydroxypropylcellulose) (HPC)).

For the molecule `COc1ccc(-c2cc[n+]([O-])c(C)c2C)c(OC)c1OC`, the T/C under setting [4] was 94 % of control, the T/C under setting [5] was 96 % of control and the T/C under setting [6] was 92 % of control.

Turning to `O=C[C@@H](CO)O[C@H](C=O)c1c[nH]c(=O)[nH]c1=O`, the T/C by setting is: (dose: 5.0 mg/kg/injection, schedule: Q01DX005 (ip), vehicle: saline) 118 % of control; (dose: 12.5 mg/kg/injection, schedule: Q01DX005 (ip), vehicle: saline) 155 % of control; (dose: 12.5 mg/kg/injection, schedule: Q04DX003 (ip), vehicle: saline) 124 % of control; (dose: 25.0 mg/kg/injection, schedule: Q01DX005 (ip), vehicle: saline) 156 % of control and 158 % of control; (dose: 40.0 mg/kg/injection, schedule: Q01DX005 (ip), vehicle: saline) 155 % of control; (dose: 50.0 mg/kg/injection, schedule: Q01DX005 (ip), vehicle: saline) 173 % of control and 190 % of control. Also, the T/C by setting is: (dose: 80.0 mg/kg/injection, schedule: Q01DX005 (ip), vehicle: saline) 186 % of control and 245 % of control; (dose: 100.0 mg/kg/injection, schedule: Q04DX003 (ip), vehicle: saline) 185 % of control.

With `CCN(CC)c1ccc2cc(-c3nc4ccccc4[nH]3)c(=O)oc2c1`, the T/C (dose: 12.5 mg/kg/injection, schedule: Q01DX009 (ip), vehicle: saline with Tween-80) is 96 % of control; the T/C (dose: 25.0 mg/kg/injection, schedule: Q01DX009 (ip), vehicle: saline with Tween-80) was 95 % of control; the T/C under setting [4] was 88 % of control and 98 % of control; the T/C under setting [5] was 95 % of control.

Consider `CCCCCCC(/C=C/c1ccc(Cl)c(Cl)c1)=N\NC(N)=O`, for which the T/C by setting is: (dose: 50.0 mg/kg/injection, schedule: Q01DX009 (ip), vehicle: saline) 104 % of control; (dose: 100.0 mg/kg/injection, schedule: Q01DX009 (ip), vehicle: saline) 100 % of control; (dose: 200.0 mg/kg/injection, schedule: Q01DX009 (ip), vehicle: saline) 98 % of control.

Regarding `COC(=O)CCCN1CC2C=C(C#N)C1C(C(=O)OC)C2` (stereo unspecified), the T/C reads like this: (dose: 60.0 mg/kg/injection, schedule: Q01DX005 (ip), vehicle: saline) 98 % of control; (dose: 120.0 mg/kg/injection, schedule: Q01DX005 (ip), vehicle: saline) 96 % of control.

Turning to `C=CCNSc1cccc([N+](=O)[O-])c1`, the T/C runs as follows: under setting [7], 121 % of control; under setting [1], 120 % of control; under setting [2], 121 % of control; under setting [3], 102 % of control and 103 % of control and 115 % of control.

In the case of `Cc1nc2ccccc2c(C(=O)NO)[n+]1[O-]`, the T/C reads like this: under setting [4], 104 % of control; under setting [5], 100 % of control; under setting [6], 103 % of control.

In the case of `Nc1ccc2ccccc2c1-c1c(N)ccc2ccccc12`, the T/C is, setting by setting: under setting [7], 109 % of control; under setting [1], 91 % of control; under setting [2], 102 % of control; under setting [3], 111 % of control.

Regarding `C[Si]1(C)N[Si](C)(C)N([Si](C)(C)C)[Si](C)(C)N1`, the T/C was 93 % of control under setting [8]; 101 % of control under setting [9]; 109 % of control (dose: 200.0 mg/kg/injection, schedule: Q01DX005 (ip), vehicle: saline with Tween-80).

On to `CC(=O)OC1CCC2C3C=CC4=C/C(=N/NC(N)=S)CCC4(C)C3CCC12C` (stereo unspecified), for which the T/C by setting is: (dose: 100.0 mg/kg/injection, schedule: Q01DX001 (ip), vehicle: saline) 100 % of control; (dose: 200.0 mg/kg/injection, schedule: Q01DX001 (ip), vehicle: saline) 98 % of control; (dose: 400.0 mg/kg/injection, schedule: Q01DX001 (ip), vehicle: saline) 99 % of control.

As to `O=C1CCCC2OC12` (stereo unspecified), the T/C by setting is: (dose: 100.0 mg/kg/injection, schedule: Q04DX002 (ip), vehicle: saline) 110 % of control; (dose: 200.0 mg/kg/injection, schedule: Q04DX002 (ip), vehicle: saline) 112 % of control.

With `Nc1nc2c(C(=O)c3cccs3)nnn2c2cccc(Cl)c12`, the T/C under setting [10] is 99 % of control, the T/C under setting [11] is 100 % of control and the T/C under setting [12] was 104 % of control.

On to `CCCCCCCCCCC(O)CCCCCCCCCC`, for which the T/C was 95 % of control (dose: 100.0 mg/kg/injection, schedule: Q04DX003 (ip), vehicle: saline with Tween-80) and 90 % of control (dose: 200.0 mg/kg/injection, schedule: Q04DX003 (ip), vehicle: saline with Tween-80).

Consider `Cc1nc(SCC(=O)O)n[nH]1`, for which the T/C runs as follows: under setting [4], 103 % of control; under setting [5], 103 % of control; under setting [6], 101 % of control.

As to `COc1cc(/C=C/C(=O)O)cc(OC)c1`, the T/C by setting is: (dose: 50.0 mg/kg/injection, schedule: Q01DX005 (ip), vehicle: Klucel (hydroxypropylcellulose) (HPC)) 103 % of control; (dose: 100.0 mg/kg/injection, schedule: Q01DX005 (ip), vehicle: Klucel (hydroxypropylcellulose) (HPC)) 103 % of control; (dose: 200.0 mg/kg/injection, schedule: Q01DX005 (ip), vehicle: Klucel (hydroxypropylcellulose) (HPC)) 109 % of control.

As to `CN=C(N)N/N=C/c1c2ccccc2c(C)c2ccccc12`, the T/C (dose: 25.0 mg/kg/injection, schedule: Q04DX002 (ip), vehicle: saline) is 119 % of control and the T/C (dose: 50.0 mg/kg/injection, schedule: Q04DX002 (ip), vehicle: saline) was 115 % of control.

For `Nc1nc(N)c(N=O)c(Nc2ccccc2)n1`, the T/C by setting is: under setting [4], 97 % of control; under setting [5], 99 % of control; under setting [6], 96 % of control.

Regarding `O=C(O)CCc1c2ccc(=O)c(O)c-2oc2c(O)c(O)ccc12`, the T/C under setting [10] is 104 % of control, the T/C under setting [11] was 98 % of control and the T/C under setting [12] was 103 % of control.

`Cc1nn(C(=O)c2cccnc2)c(-c2ccccc2)c1N=Nc1ccc(S(=O)(=O)Nc2ncccn2)cc1`: the T/C was 89 % of control under setting [8] and 88 % of control under setting [9].

As for `CN(C)c1ccc(C(=C2C=CC(=Nc3ccccc3)c3ccccc32)c2ccc(N(C)C)cc2)cc1`, the T/C by setting is: (dose: 3.12 mg/kg/injection, schedule: Q01DX005 (ip), vehicle: Klucel (hydroxypropylcellulose) (HPC)) 100 % of control and 101 % of control; (dose: 6.25 mg/kg/injection, schedule: Q01DX005 (ip), vehicle: Klucel (hydroxypropylcellulose) (HPC)) 100 % of control and 104 % of control and 112 % of control; (dose: 12.5 mg/kg/injection, schedule: Q01DX005 (ip), vehicle: Klucel (hydroxypropylcellulose) (HPC)) 111 % of control and 114 % of control and 120 % of control; (dose: 25.0 mg/kg/injection, schedule: Q01DX005 (ip), vehicle: Klucel (hydroxypropylcellulose) (HPC)) 115 % of control and 118 % of control.

As to `CN=C(NC)c1ccc(NC(=O)c2ccc(C(=O)Nc3ccc(C(=NC)NC)c(OC)c3)c(Cl)c2)cc1OC`, the T/C by setting is: (dose: 0.78 mg/kg/injection, schedule: Q01DX005 (ip), vehicle: saline with Tween-80) 101 % of control; (dose: 1.56 mg/kg/injection, schedule: Q01DX005 (ip), vehicle: saline with Tween-80) 104 % of control; (dose: 3.13 mg/kg/injection, schedule: Q01DX005 (ip), vehicle: saline with Tween-80) 105 % of control.
